Measurements: EP2740727B1, “Quinazolinone analogues for use as anticonvulsant agents” (King Saud University, priority 2012, dated 2014)
Read-outs that look alike come from different tables or passages of the source.

What was measured:
Albino Swiss mice [1] = assay: Acute toxicity determination (LD50); settings: Therapeutic index = LD50/ED50
Method: (§1) The acute toxicity detenninatioii (LD50) for compounds of formula 1 was performed. Compounds were given intraperitoneally (i.p.) in doses ranging from 0.1-5 mmol/kg. […] All behavioral changes and death during the observation periods were recorded. […] The protective index (PI) and therapeutic index (TI) of each compound were calculated.
(§2) Initially the approximate LD50 of each test compound was determined. Albino Swiss mice (25 g body weight) were then divided into 4 groups (6 mice each). […] The animals were then observed closely for 4 hours and then occasionally for 72 hours. The percentage of death in each group was then calculated.

motor performance = assay: Minimal neurotoxicity (chimney test), motor performance; settings: Protective index = TD50/ED50
Method: (§3) Median effective (ED50), and median sedative (TD50) were calculated.

in vivo [2] = settings: mouse, ip
Method: as §1, §2

in vivo [3] = settings: mouse, ip; remark: listed apart in the source
Method: as §3

[4] = tested on: Pentylenetetrazole (PTZ)-induced convulsion; assay: Pentylenetetrazole (PTZ) seizure threshold test; type: in vivo, Swiss albino mice; settings: for ED50: Mus musculus, ip, median effective dose, mice, log-probit method; for % Protection: PTZ 100 mg/kg i.p. 30 min later, 4 animals; for protection against PTZ-induced seizures: dose not given (tested 25, 50, 100 and 200 mg/kg i.p.)
Method: Adult male Swiss […] mice (22-28 g), approximately 10-week old, were used to conduct the anticonvulsant evaluation. They were housed in cages and kept at a temperature of 20 ± 2°C and a relative humidity of 55 ± 5% with a light-dark cycle of 12 h and fed with standard diet and water ad libitum. […] A control group of mice was included and received intraperitoneal (i.p.) injections of the test compounds' vehicle. […] Picrotoxin (pic) was freshly dissolved in 1 ml 0.1N warmed HCl and the final volume was made up with 0.9% NaCl.
A single 5 seconds episode of clonic spasms was taken as a threshold seizure.
In each of the chemical and the electrical methods described above, Swiss albino mice were divided into 4 groups (N = 4 animals).

Albino Swiss mice [5] = settings: mouse, in vivo, 72 h
Method: as §1, §2

For `COc1cc2nc(SCC(=O)NN)n(Cc3ccccc3)c(=O)c2cc1OC` [Compound 70, 2-(3-Benzyl-6,7-dimethoxy-4-oxo-3,4-dihydro-quinazolin-2-yl-thio)acetohydrazide], the TI (Albino Swiss mice [1]) was 11.25, the PI (motor performance) was 4.67 and the LD50 at 72 h (in vivo [2]; Albino Swiss) was 360 mg/kg. For the same compound, the TD50 (in vivo [3]) was 149 mg/kg, the ED50 [4] was 32 mg/kg and the “% Protection” value ([4]; dose 50 mg/Kg i.p. [sic]) was 100%. For the same compound, the “protection against PTZ-induced seizures” value [4] was 100%.
Work on `O=C(CCc1ccccc1)NNC(=O)CSc1nc2ccc(Cl)cc2c(=O)n1Cc1ccccc1` [Compound 115, N'-(2-(3-Benzyl-6-chloro-4-oxo-3,4-dihydro-quinazolin-2-yl-thio)acetyl)-3-phenylpropanehydrazide] yielded a TI (Albino Swiss mice [1]) of 9.8, a PI (motor performance) of 4.6 and an LD50 at 72 h (in vivo [2]; Albino Swiss) of 290 mg/kg. For the same compound, the TD50 (in vivo [3]) was 136 mg/kg, the ED50 [4] was 29.5 mg/kg and the “% Protection” value ([4]; dose 150 mg/Kg i.p.) was 100%. The “protection against PTZ-induced seizures” value [4] was 100%.
In the case of `CCCC(CCC)C(=O)[O-].[Na+]` [Sodium Valproate, Sodium valproate, reference compound], the TI (Albino Swiss mice [5]) is reported as 5.2, the LD50 at 72 h (in vivo [2]) is reported as 985 mg/kg and the TD50 (in vivo [3]) is reported as 470 mg/kg. The ED50 [4] was 189 mg/kg and the “% Protection” value ([4]; dose 50 mg/Kg i.p. [sic]) was 100%.
Compound `CCC(=O)NNC(=O)CSc1nc2cc(OC)c(OC)cc2c(=O)n1Cc1ccccc1` [Compound 110, N'-(2-(3-Benzyl-6,7-dimethoxy-4-oxo-3,4-dihydro-quinazolin-2-yl-thio)acetyl)propionohydrazide] has a TI (Albino Swiss mice [1]) of 5.1, a PI (motor performance) of 4.1 and an LD50 at 72 h (in vivo [2]; Albino Swiss) of 168 mg/kg. The TD50 (in vivo [3]) was 134 mg/kg, the ED50 [4] was 32.7 mg/kg and the “% Protection” value ([4]; dose 150 mg/Kg i.p.) was 100%. For the same compound, the “protection against PTZ-induced seizures” value [4] was 100%.
`CCC(=O)NNC(=O)CSc1nc2ccc(Cl)cc2c(=O)n1-c1ccccc1` [Compound 89, N'-[2-(6-Chloro-4-oxo-3-phenyl-3,4-dihydro-quinazolin-2yl-thio)acetyl]propionohydrazide] gave a TI (Albino Swiss mice [1]) of 24.6, a PI (motor performance) of 8.5 and an LD50 at 72 h (in vivo [2]; Albino Swiss) of 290 mg/kg. The TD50 (in vivo [3]) was 100 mg/kg, the ED50 [4] was 11.8 mg/kg and the “% Protection” value ([4]; dose 50 mg/Kg i.p. [sic]) was 100%. For the same compound, the “protection against PTZ-induced seizures” value [4] was 100%.
Work on `CC(=O)NNC(=O)CSc1nc2ccc(Cl)cc2c(=O)n1Cc1ccccc1` [Compound 105, N'-Acetyl-2-(3-benzyl-6-chloro-4-oxo-3,4-dihydro-quinazolin-2-yl-thio)acetohydrazide] yielded a TI (Albino Swiss mice [1]) of 9.7, a PI (motor performance) of 8.7 and an LD50 at 72 h (in vivo [2]; Albino Swiss) of 240 mg/kg. The TD50 (in vivo [3]) was 215 mg/kg, the ED50 [4] was 24.8 mg/kg and the “% Protection” value ([4]; dose 150 mg/Kg i.p.) was 100%. The “protection against PTZ-induced seizures” value [4] was 100%.
